From patent US20260009799A1, “CA-IX TARGETING FLUORESCENT PROBES” (BRACCO IMAGING S.P.A., priority 2022, published 2026)

Experiments:
[1] = target: T1, human serum albumin (HSA) (Homo sapiens, UniProt P02768); experiment: Binding to albumin (ultrafiltration, absorbance of filtrates); type: in vitro ADME; conditions: 4.76 μM probe in PBS, 10 KDa cut off ultrafiltration, 25° C.; read-out: HSA affinity (KA, M^−1) (converted)
T1 construct: purchased Sigma-Aldrich A9511
Experimental: The affinity of the probes for human serum albumin (HSA) was determined to assess the influence of structural features on their albumin binding properties. Briefly, HSA (A9511, Sigma-Aldrich) was prepared in a […] stock solution in PBS and used to obtain a series of dilutions in PBS (0, 9.52·10^−7, 4.76·10^−6, 9.52·10^−6, 1.90·10^−5, 3.81·10^−5, 5.71·10^−5, 9.52·10^−5, 1.43·10^−4, 1.90·10^−4, 2.86·10^−4, 3.81·10^−4 M), in presence of 4.76 μM of the CA-IX-targeting probe (prepared from a 50 μM stock solution in PBS), in a total volume of 0.525 mL. The samples were centrifuged (10000 g for 30 min at 25° C.) in a Microcon device (10 KDa MW cut off, Amicon Ultra-0.5 Centrifugal Filter Unit with Ultracel-10 membrane) and the absorbance measurements of the filtrates were obtained with the spectrophotometer at the maximum absorbance wavelength of the fluorophore.
Data analysis was performed by fitting the raw data, using Microsoft Excel Solver, with the equation:
where ΔA/b=Absorbance measured (b=1 cm), KRL=KA calculated by fitting, Δε·Rt are calculated by fitting, and [L]=HSA concentration. ΔA/b values were experimentally obtained by subtracting the absorbance of “0 HSA sample” to the absorbance of each other sample.

[2] = tested on: hypoxic HT-29 colorectal tumor, subcutaneously induced; experiment: In vivo tumor optical imaging (IVIS Spectrum), tumor-to-background ratio; design: species or system mice; conditions: 24 hours after intravenous administration, 1 nmol/mouse, tumor vs hind limb muscle
Experimental: HT-29 cells were collected and washed once with serum-free medium. Five million HT-29 cells were suspended in 0.1 mL serum-free medium and injected subcutaneously in the right flank of 5 weeks old mice. Tumor development was followed by caliper measurement twice a week, from 7 days after inoculation. Tumor volume was calculated according to the formula: (L*W2)/2, where L and W are the maximum length and width of the tumor.
Optical Imaging experiments on HT-29 tumor bearing animals were performed after administration of Reference 1, 2 and 3, and compounds 1 and 2, all at a dose of 1 nmol/mouse in an administration volume of 0.1 mL (corresponding to about 5 mL/kg, considering a 20 g-mouse) at an injection rate of about 1 mL/min, by the IVIS Spectrum system when the tumor reached at least 200 mm^3 volume. For each group, in vivo OI experiments were performed at 0.5, 1, 2, 3, 4, 6 and 24 hours after intravenous administration of the fluorescent compounds. During imaging experiments animals were maintained under gaseous anesthesia. Regions of interest (ROIs) were drawn on the tumor and on a reference background healthy region (hind limb muscle) of the mouse for each fluorescence image at every time point to evaluate signal intensity in the tissues (expressed as Average Radiant Efficiency). The ratio between the fluorescence signal in the tumor and in the background healthy tissue (tumor-to-background ratio, TBR) was then calculated to assess the contrast.
All the compounds of the invention and the References were tested at a dose of 1 nmol/mouse.

CA-IX on HT-29 cells = target: T2, CA-IX on HT-29 cells (Homo sapiens, UniProt Q16790); experiment: Cellular specificity: binding to HT-29 cells in competition with MSC8 antibody; type: cell-based; conditions: compound 1 0.125 μM, MSC8 0.0125/0.125/1.25/2.5 μM, on ice
T2 construct: CA-IX, expressed in its physiological environment at the cell-surface; host or cells: HT-29 human colorectal adenocarcinoma cells
Experimental: HT-29 cells were co-incubated, on ice in suspension, with compound 1, at the established concentration of 0.125 μM, and different concentrations of MSC8 (0.1×, 1×, 10× and 20× with respect to compound 1, i.e. 0.0125/0.125/1.25/2.5 μM); in addition, HT-29 cells were incubated with either compound 1 alone, or each concentration of MSC8 alone as well. The resulting binding of both compound 1 and MSC8 was then recorded as cell-associated fluorescence intensity, using for MSC8 a secondary antibody labelled with Alexa Fluor™ 488 (ThermoFischer), and compared to the one resulting from both compounds alone, taken as 100%.

T1 sequence (P02768 25-609): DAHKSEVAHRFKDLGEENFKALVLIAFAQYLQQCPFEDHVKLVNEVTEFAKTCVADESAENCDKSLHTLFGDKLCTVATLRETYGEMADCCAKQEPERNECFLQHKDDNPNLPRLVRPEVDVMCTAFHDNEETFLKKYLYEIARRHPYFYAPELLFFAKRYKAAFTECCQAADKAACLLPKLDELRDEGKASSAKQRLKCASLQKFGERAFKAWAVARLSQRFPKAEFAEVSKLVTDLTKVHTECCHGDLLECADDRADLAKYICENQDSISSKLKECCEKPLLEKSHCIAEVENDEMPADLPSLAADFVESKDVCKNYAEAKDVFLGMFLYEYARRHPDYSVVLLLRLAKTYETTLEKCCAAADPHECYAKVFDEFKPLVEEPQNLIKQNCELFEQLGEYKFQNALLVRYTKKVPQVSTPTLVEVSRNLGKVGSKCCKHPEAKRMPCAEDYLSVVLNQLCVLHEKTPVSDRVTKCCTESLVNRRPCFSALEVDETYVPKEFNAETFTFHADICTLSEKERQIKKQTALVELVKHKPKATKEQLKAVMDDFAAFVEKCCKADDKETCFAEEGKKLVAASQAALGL

Compound | Kd [1] | in vivo TBR (mean ± SD) [2] | binding of compound 1 to HT-29 cells in presence of MSC8 (CA-IX on HT-29 cells)
CC1(C)C(/C=C/C2=C(Oc3ccc(S(=O)(=O)O)cc3)C(=C/C=C3/N(CCCCCC(=O)NCCCCCCCC(=O)Nc4nnc(S(N)(=O)=O)s4)c4ccc(C(=O)NC[C@H](O)[C@@H](O)[C@H](O)[C@H](O)CO)cc4C3(C)C)/CCC2)=[N+](CCCCS(=O)(=O)[O-])c2ccc(C(=O)NC[C@H](O)[C@@H](O)[C@H](O)[C@H](O)CO)cc21 [Compound 1] | 80 µM | 5.2 ± 1.0 | reduced in a dose-dependent manner
CC(CC[N+]1=C(/C=C/C=C/C=C/C=C2/N(CCCCCC(=O)NCCCCCCCC(=O)Nc3nnc(S(N)(=O)=O)s3)c3ccc(C(=O)NC[C@H](O)[C@@H](O)[C@H](O)[C@H](O)CO)cc3C2(C)C)C(C)(C)c2cc(C(=O)NC[C@H](O)[C@@H](O)[C@H](O)[C@H](O)CO)ccc21)S(=O)(=O)[O-] (some centres unmarked) [Compound 2] | 105 µM | 10.1 ± 3.1 | 
